In the supplement of paper PMC10307832:

Tests used:
Experiment in all cases: relative viability (nuclei count vs DMSO), 5 days (fraction); higher = more cells survive
[1] = compound: CC(C)N(CCCNC(=O)Nc1ccc(C(C)(C)C)cc1)C[C@H]1O[C@@H](n2ccc3c(N)ncnc32)[C@H](O)[C@@H]1O + CS(=O)(=O)CCNCc1ccc(-c2ccc3ncnc(Nc4ccc(OCc5cccc(F)c5)c(Cl)c4)c3c2)o1 [Lapatinib] (partner 2 µM)
Procedure, shortened: (§1)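 Nuclei were stained with Hoechst during a one-step fixation (final 0.05% Triton X-100, 1% formaldehyde, 1 ug/ml Hoechst) carried out 5 days after dosing, then counted on 4× images. The cells, lung cancer lines in 1536-well plates, had been dosed by pin tool the day after seeding with one drug alone or a fixed anchor-drug dose plus five library-drug doses (not always all listed) in √10 steps. Relative viability is the nuclei count in treated wells divided by that in vehicle wells, and each value is the median of duplicate plates.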

[2] = compound: CC(C)N(CCCNC(=O)Nc1ccc(C(C)(C)C)cc1)C[C@H]1O[C@@H](n2ccc3c(N)ncnc32)[C@H](O)[C@@H]1O + Cc1nc(Nc2ncc(C(=O)Nc3c(C)cccc3Cl)s2)cc(N2CCN(CCO)CC2)n1 [Dasatinib] (partner 0.075 µM)
Procedure, shortened: as §1

Shikonin + OSI-027 = compound: CC(C)=CC[C@@H](O)C1=CC(=O)c2c(O)ccc(O)c2C1=O [Shikonin] + COc1cccc2cc(-c3nc([C@H]4CC[C@H](C(=O)O)CC4)n4ncnc(N)c34)[nH]c12 [OSI-027] (partner 0.5 µM)
Procedure, shortened: as §1

Shikonin + Pictilisib = compound: CC(C)=CC[C@@H](O)C1=CC(=O)c2c(O)ccc(O)c2C1=O [Shikonin] + CS(=O)(=O)N1CCN(Cc2cc3nc(-c4cccc5[nH]ncc45)nc(N4CCOCC4)c3s2)CC1 [Pictilisib] (partner 1 µM)
Procedure, shortened: as §1

| Cell Line | relative viability ([1]; first compound 0.08 µM) | relative viability ([1]; first compound 0.253 µM) | relative viability ([1]; first compound 0.8 µM) | relative viability ([1]; first compound 2.53 µM) | relative viability ([1]; first compound 8 µM) | relative viability ([2]; first compound 0.08 µM) | relative viability ([2]; first compound 0.253 µM) | relative viability ([2]; first compound 0.8 µM) | relative viability ([2]; first compound 2.53 µM) | relative viability ([2]; first compound 8 µM) | relative viability (Shikonin + OSI-027; first compound 0.01 µM) | relative viability (Shikonin + OSI-027; first compound 0.1 µM) | relative viability (Shikonin + OSI-027; first compound 0.3162 µM) | relative viability (Shikonin + OSI-027; first compound 1 µM) | relative viability (Shikonin + Pictilisib; first compound 0.01 µM) | relative viability (Shikonin + Pictilisib; first compound 0.1 µM) | relative viability (Shikonin + Pictilisib; first compound 0.3162 µM) | relative viability (Shikonin + Pictilisib; first compound 1 µM) |
| --- | --- | --- | --- | --- | --- | --- | --- | --- | --- | --- | --- | --- | --- | --- | --- | --- | --- | --- |
| NCI-H2023 | 0.735 | 0.425 | 0.752 | 0.787 | 0.592 | 0.503 | 0.668 | 0.602 | 0.662 | 0.55 | 0.394 | 0.367 | 0.443 | 0.408 | 0.225 | 0.31 | 0.223 | 0.257 |
| NCI-H3122 | 1.09 | 0.938 | 1.02 | 1.02 | 1.03 | 0.696 | 0.814 | 0.559 | 0.786 | 0.739 | 1.07 | 1.27 | 1.03 | 1.06 | 0.638 | 0.643 | 0.607 | 0.494 |
| NCI-H1755 | 1.02 | 1.06 | 0.841 | 0.979 | 0.944 | 0.373 | 0.44 | 0.418 | 0.428 | 0.429 | 0.765 | 0.736 | 0.827 | 0.687 | 0.468 | 0.472 | 0.406 | 0.472 |
| HCC-78 | 0.693 | 0.809 | 0.786 | 0.431 | 0.701 | 0.485 | 0.311 | 0.466 | 0.308 | 0.32 | 0.338 | 0.377 | 0.353 | 0.401 | 0.185 | 0.234 | 0.188 | 0.249 |
| LOU-NH91 | 0.643 | 0.731 |  | 0.83 | 0.773 | 0.572 | 0.579 | 0.485 | 0.553 | 0.529 | 0.718 | 0.813 | 0.786 | 0.726 | 0.509 | 0.544 | 0.52 | 0.563 |
| NCI-H322M | 0.536 | 0.591 | 0.607 | 0.564 | 0.607 | 0.278 | 0.266 | 0.264 | 0.24 | 0.284 | 0.548 | 0.562 | 0.53 | 0.509 | 0.498 | 0.526 | 0.496 | 0.504 |
| HCC-827 | 0.207 | 0.217 |  | 0.174 | 0.158 | 0.286 | 0.44 | 0.355 | 0.311 | 0.423 | 0.821 | 0.86 | 0.9 | 0.761 | 1.12 | 0.786 | 1.03 | 0.871 |
